What all share (assay): MIC, CLSI broth microdilution, Test Example 1
Holding throughout (assay type): cell-based
In general terms: Dilution methods test growth across graded concentrations, often in twofold steps.

Assay [1] has as its system P. aeruginosa SR24. To be noted: Pseudomonas aeruginosa, SR24; Ceftazidime resistance strain; cation-adjusted Mueller Hinton broth containing human apo-transferrin; 5×10^5 cfu/mL; read-out: Minimum Inhibitory Concentration (MIC) P. aeruginosa SR24.
The subject of assay [2] is A. baumannii SR27323. Particulars: Acinetobacter baumannii, SR27323; OXA-23, OXA-58 carbapenemase producing strain; cation-adjusted Mueller Hinton broth containing human apo-transferrin; 5×10^5 cfu/mL; read-out: Minimum Inhibitory Concentration (MIC) A. baumannii SR27323. As to the method:
(§1) Measurement of Minimum Inhibitory Concentration (MIC: μg/mL) was conducted according to CLSI (Clinical and Laboratory Standards Institute) method, and the amount of bacteria for inoculation was 5×10^5 cfu/mL, and cation-adjusted Mueller Hinton broth containing human apo-transferrin was used as a test medium, and the experiment was conducted using broth microdilution method. The bacteria used are listed below.

Assay [3] has as its system E. coli ATCCBAA-199. To be noted: Escherichia coli, ATCCBAA199; SHV-3 ESBL producing strain; cation-adjusted Mueller Hinton broth containing human apo-transferrin; 5×10^5 cfu/mL; read-out: Minimum Inhibitory Concentration (MIC) E. coli ATCC BAA-199. As to the method:
as §1

Assay [4] has as its system E. coli ATCCBAA-200. Particulars: Escherichia coli, ATCCBAA200; SHV-4 ESBL producing strain; cation-adjusted Mueller Hinton broth containing human apo-transferrin; 5×10^5 cfu/mL; read-out: Minimum Inhibitory Concentration (MIC) E. coli ATCC BAA-200. The method, then: as §1
Assay [5] concerns K. pneumoniae ATCCBAA-1705. To be noted: Klebsiella pneumoniae, ATCCBAA1705; KPC-2 carbapenemase producing strain; cation-adjusted Mueller Hinton broth containing human apo-transferrin; 5×10^5 cfu/mL; read-out: Minimum Inhibitory Concentration (MIC) K. pneumoniae ATCCBAA-1705. The method, then: as §1
The subject of assay [6] is P. aeruginosa SR24837. To be noted: Pseudomonas aeruginosa, SR24837; PER-1 ESBL producing strain; cation-adjusted Mueller Hinton broth containing human apo-transferrin; 5×10^5 cfu/mL; read-out: Minimum Inhibitory Concentration (MIC) P. aeruginosa SR24837. The method, then:
as §1

Assay [7] concerns P. aeruginosa SR27060. Particulars: Pseudomonas aeruginosa, SR27060; IMP-1 MBL producing strain (carbapenem resistance strain); cation-adjusted Mueller Hinton broth containing human apo-transferrin; 5×10^5 cfu/mL; read-out: Minimum Inhibitory Concentration (MIC) P. aeruginosa SR27060. As to the method:
as §1

Here are results for eight compounds from patent US9334289B2, “Cephem compound having catechol or pseudo-catechol structure” (SHIONOGI & CO., LTD., priority 2011, dated 2016).

With `CC(C)(O/N=C(\C(=O)N[C@@H]1C(=O)N2C(c3nnn[n-]3)=C(C[n+]3ccc4cc(O)c(O)cc4c3)CS[C@H]12)c1csc(N)n1)C(=O)[O-].[Na+]` [Compound I-77], the MIC was ≤ 0.031 µg/mL in assay [1]; 0.125 µg/mL in assay [2]; ≤ 0.031 µg/mL in assay [3]; 0.063 µg/mL in assay [4]; ≤ 0.031 µg/mL in assay [5]; ≤ 0.031 µg/mL in assay [6]. Also, the MIC in assay [7] is 0.25 µg/mL.

As to `CC(C)(O/N=C(\C(=O)N[C@@H]1C(=O)N2C(c3nnn[n-]3)=C(C[n+]3cccc(NC(=O)c4ccc(O)c(O)c4Cl)c3)CS[C@H]12)c1csc(N)n1)C(=O)[O-].[Na+]` [Compound I-73], the MIC in assay [1] is 0.125 µg/mL; in assay [2], 0.25 µg/mL; in assay [3], 0.063 µg/mL; in assay [4], 0.125 µg/mL; in assay [5] it was ≤ 0.031 µg/mL; in assay [6], 0.25 µg/mL. The MIC in assay [7] is 0.25 µg/mL.

`CC(C)(O/N=C(\C(=O)N[C@@H]1C(=O)N2C(c3nnn[n-]3)=C(C[N+]34CCC(CNC(=O)c5cc(=O)c(O)cn5O)(CC3)CC4)CS[C@H]12)c1csc(N)n1)C(=O)[O-].[Na+]` [Compound I-18]: the MIC in assay [1] was 0.5 µg/mL; in assay [2] it was 0.125 µg/mL; in assay [3], 0.125 µg/mL; in assay [4], 0.25 µg/mL; in assay [5], ≤ 0.031 µg/mL; in assay [6] it was 1 µg/mL. For the same compound, in assay [7], the MIC was determined as 2 µg/mL.

Consider `CC(C)(O/N=C(\C(=O)N[C@@H]1C(=O)N2C(c3nnn[n-]3)=C(C[N+]3(CCNC(=O)c4ccc(O)c(O)c4Cl)CCCC3)CS[C@H]12)c1csc(N)n1)C(=O)[O-].[Na+]` [Compound I-1], for which the MIC is 0.5 µg/mL in assay [1]; 0.5 µg/mL in assay [2]; 0.063 µg/mL in assay [3]; 0.125 µg/mL in assay [4]; ≤ 0.031 µg/mL in assay [5]; 0.5 µg/mL in assay [6]. Moreover, the MIC in assay [7] was determined as 0.5 µg/mL.

For the compound `Nc1nc(/C(=N/O[C@@H](CC(=O)[O-])C(=O)[O-])C(=O)N[C@@H]2C(=O)N3C(c4nnn[n-]4)=C(C[N+]45CCC[C@H]4CN(C(=O)c4cc(O)c(O)c(Cl)c4)CC5)CS[C@H]23)cs1.[Na+].[Na+]` (some centres unmarked) [Compound I-4], the MIC in assay [1] was 0.5 µg/mL; in assay [2], 0.5 µg/mL; in assay [3], 0.125 µg/mL; in assay [4], 0.5 µg/mL; in assay [5], ≤ 0.031 µg/mL; in assay [6] it was 4 µg/mL. Also, the MIC in assay [7] was found to be 0.5 µg/mL.

Consider `CC(C)(O/N=C(\C(=O)N[C@@H]1C(=O)N2C(c3nn[n-]n3)=C(C[n+]3ccc(C(=O)c4ccc(O)c(O)c4Cl)cc3)CS[C@H]12)c1csc(N)n1)C(=O)[O-].[Na+]` [Compound I-48], for which the MIC in assay [1] is ≤ 0.031 µg/mL; in assay [2], 0.5 µg/mL; in assay [3], 0.25 µg/mL; in assay [4], 0.25 µg/mL; in assay [5] it was ≤ 0.031 µg/mL; in assay [6], 0.125 µg/mL. The MIC in assay [7] was 0.25 µg/mL.

`CC(C)(O/N=C(\C(=O)N[C@@H]1C(=O)N2C(c3nnn[n-]3)=C(Cn3cc4ccc(CNC(=O)c5ccc(O)c(O)c5Cl)c[n+]4c3)CS[C@H]12)c1csc(N)n1)C(=O)[O-].[Na+]` [Compound I-58]: the MIC is 0.125 µg/mL in assay [1]; 1 µg/mL in assay [2]; 0.25 µg/mL in assay [3]; 0.5 µg/mL in assay [4]; ≤ 0.031 µg/mL in assay [5]; 0.5 µg/mL in assay [6]. Also, in assay [7], the MIC amounted to 0.5 µg/mL.

For `Nc1nc(/C(=N/O[C@@H](CC(=O)[O-])C(=O)[O-])C(=O)N[C@@H]2C(=O)N3C(c4nnn[n-]4)=C(C[N+]4(CCNC(=O)c5ccc(O)c(O)c5Cl)CCCC4)CS[C@H]23)cs1.[Na+].[Na+]` [Compound I-3], the MIC in assay [1] is 0.5 µg/mL; in assay [2] it was 0.25 µg/mL; in assay [3], ≤ 0.031 µg/mL; in assay [4], 0.063 µg/mL; in assay [5] it was ≤ 0.031 µg/mL; in assay [6], 2 µg/mL. Moreover, the MIC in assay [7] is 1 µg/mL.
